Key:
Assay type in all cases: functional
SN12C = experiment: Anticancer activity against human SN12C cells after 48 hrs by sulforhodamine B assay
HCT-15 = experiment: Anticancer activity against human HCT15 cells after 48 hrs by sulforhodamine B assay
PC-3 = experiment: Anticancer activity against human PC3 cells assessed cell growth at 10 uM after 48 hrs by sulforhodamine B assay relative to control
CAKI-1 = experiment: Anticancer activity against human Caki1 cells after 48 hrs by sulforhodamine B assay
RXF 393 [1] = experiment: Anticancer activity against human RXF393 cells after 48 hrs by sulforhodamine B assay
LOX IMVI [2] = experiment: Anticancer activity against human LOXIMVI cells after 48 hrs by sulforhodamine B assay
MDA-MB-468 = experiment: Anticancer activity against human MDA-MB-468 cells assessed cell growth at 10 uM after 48 hrs by sulforhodamine B assay relative to control
NCI-H460 = experiment: Anticancer activity against human NCI-H460 cells assessed cell growth at 10 uM after 48 hrs by sulforhodamine B assay relative to control
T47D = experiment: Anticancer activity against human T47D cells after 48 hrs by sulforhodamine B assay
SNB-19 = experiment: Anticancer activity against human SNB19 cells assessed cell growth at 10 uM after 48 hrs by sulforhodamine B assay relative to control
OVCAR-8 = experiment: Anticancer activity against human OVCAR8 cells assessed cell growth at 10 uM after 48 hrs by sulforhodamine B assay relative to control
MDA-MB-231 = experiment: Anticancer activity against human MDA-MB-231 cells after 48 hrs by sulforhodamine B assay
786-0 = experiment: Anticancer activity against human 786-0 cells after 48 hrs by sulforhodamine B assay
MCF7 [3] = experiment: Anticancer activity against human MCF7 cells after 48 hrs by sulforhodamine B assay
MCF7 [4] = experiment: Anticancer activity against human MCF7 cells assessed cell growth at 10 uM after 48 hrs by sulforhodamine B assay relative to control
MDA-MB-435 = experiment: Anticancer activity against human MDA-MB-435 cells after 48 hrs by sulforhodamine B assay
SK-OV-3 = experiment: Anticancer activity against human SKOV3 cells after 48 hrs by sulforhodamine B assay
K562 = experiment: Anticancer activity against human K562 cells after 48 hrs by sulforhodamine B assay
OVCAR-3 = experiment: Anticancer activity against human OVCAR-3 cells after 48 hrs by sulforhodamine B assay
RXF 393 [5] = experiment: Anticancer activity against human RXF393 cells assessed cell growth at 10 uM after 48 hrs by sulforhodamine B assay relative to control
LOX IMVI [6] = experiment: Anticancer activity against human LOXIMVI cells assessed cell growth at 10 uM after 48 hrs by sulforhodamine B assay relative to control
UACC-257 = experiment: Anticancer activity against human UACC257 cells after 48 hrs by sulforhodamine B assay
SW-620 = experiment: Anticancer activity against human SW620 cells after 48 hrs by sulforhodamine B assay
MOLT-4 = experiment: Anticancer activity against human MOLT4 cells after 48 hrs by sulforhodamine B assay
TK-10 = experiment: Anticancer activity against human TK10 cells assessed cell growth at 10 uM after 48 hrs by sulforhodamine B assay relative to control
SK-MEL-5 = experiment: Anticancer activity against human SK-MEL-5 cells after 48 hrs by sulforhodamine B assay
HOP-92 = experiment: Anticancer activity against human HOP92 cells after 48 hrs by sulforhodamine B assay
A549 = experiment: Anticancer activity against human A549 cells assessed cell growth at 10 uM after 48 hrs by sulforhodamine B assay relative to control
IGROV-1 = experiment: Anticancer activity against human IGROV1 cells assessed cell growth at 10 uM after 48 hrs by sulforhodamine B assay relative to control
M14 = experiment: Anticancer activity against human M14 cells after 48 hrs by sulforhodamine B assay
HOP-62 = experiment: Anticancer activity against human HOP62 cells assessed cell growth at 10 uM after 48 hrs by sulforhodamine B assay relative to control
HT-29 = experiment: Anticancer activity against human HT-29 cells after 48 hrs by sulforhodamine B assay
HCC 2998 = experiment: Anticancer activity against human HCC2998 cells after 48 hrs by sulforhodamine B assay
SR = experiment: Anticancer activity against human SR cells after 48 hrs by sulforhodamine B assay
COLO 205 = experiment: Anticancer activity against human COLO205 cells after 48 hrs by sulforhodamine B assay
OVCAR-4 = experiment: Anticancer activity against human OVCAR4 cells after 48 hrs by sulforhodamine B assay
NCI/ADR-RES = experiment: Anticancer activity against human NCI/ADR-RES cells after 48 hrs by sulforhodamine B assay
BT-549 = experiment: Anticancer activity against human BT549 cells after 48 hrs by sulforhodamine B assay
[7] = Anticancer activity against human […] cells after 48 hrs by sulforhodamine B assay
NCI-H322M = experiment: Anticancer activity against human NCI-H322M cells assessed cell growth at 10 uM after 48 hrs by sulforhodamine B assay relative to control
UO-31 = experiment: Anticancer activity against human UO31 cells assessed cell growth at 10 uM after 48 hrs by sulforhodamine B assay relative to control
[8] = read-out: LC50 (the source's name)

## CCCCCCCCCCCCCCCCCC[n+]1ccn(C)c1.F[P-](F)(F)(F)(F)F
SN12C
  GI50: 1.2 µM
  LC50: 5.28 µM
HCT-15
  GI50: 1.01 µM
HCT-15; [8]
  CC50: 4.66 µM
PC-3
  Activity: -62.83%
CAKI-1
  GI50: 0.791 µM
  LC50: 8.9 µM
RXF 393 [1]
  GI50: 0.467 µM
  LC50: 5.98 µM
LOX IMVI [2]
  GI50: 0.385 µM
LOX IMVI [2]; [8]
  CC50: 3.84 µM
MDA-MB-468
  Activity: -23.16%
NCI-H460
  Activity: -67.11%
T47D
  GI50: 0.719 µM
SNB-19
  Activity: -67.18%
OVCAR-8
  Activity: -34.11%
MDA-MB-231
  GI50: 1.03 µM
MDA-MB-231; [8]
  CC50: 5.11 µM
786-0
  GI50: 1.25 µM
  LC50 (50% lethal concentration): 8.58 µM
MCF7 [3]
  GI50: 0.728 µM
  LC50 (50% cell kill): 4.5 µM
MCF7 [4]
  Activity: 1.35%
MDA-MB-435
  GI50: 0.851 µM
MDA-MB-435; [8]
  CC50: 6.64 µM
SK-OV-3
  GI50: 1.81 µM
SK-OV-3; [8]
  CC50: 4.2 µM
K562
  GI50: 0.935 µM
OVCAR-3
  GI50: 0.453 µM
  LC50 (50% lethal concentration): 4.39 µM
RXF 393 [5]
  Activity: -52.84%
LOX IMVI [6]
  Activity: -13.99%
UACC-257
  GI50: 1.69 µM
  LC50: 9.66 µM
SW-620
  GI50: 0.519 µM
  LC50: 4.32 µM
MOLT-4
  GI50: 0.589 µM
  LC50: > 100 µM
TK-10
  Activity: -59.16%
SK-MEL-5
  GI50: 0.617 µM
SK-MEL-5; [8]
  CC50: 4.37 µM
HOP-92
  GI50: 0.927 µM
HOP-92; [8]
  CC50: 6.68 µM
A549
  Activity: -24.42%
IGROV-1
  Activity: -12.15%
M14
  GI50: 0.424 µM
  LC50 (50% lethal concentration): 6.25 µM
HOP-62
  Activity: -56%
HT-29
  GI50: 0.408 µM
HT-29; [8]
  CC50: > 100 µM
HCC 2998
  GI50: 0.293 µM
HCC 2998; [8]
  CC50: 5.87 µM
SR
  GI50: 1.85 µM
SR; [8]
  CC50: > 100 µM
COLO 205
  GI50: 0.389 µM
OVCAR-4
  GI50: 1.03 µM
OVCAR-4; [8]
  CC50: 6.33 µM
NCI/ADR-RES
  GI50: 1.45 µM
BT-549
  GI50: 1.29 µM
BT-549; [8]
  CC50: 6.91 µM
[7]
  GI50: 0.017 µM
[7]; [8]
  CC50: 0.811 µM
NCI-H322M
  Activity: 11.62%
UO-31
  Activity: -29.46%
